Earlier results in patent US20180214453A1, “RIVAROXABAN PHARMACEUTICAL COMPOSITIONS” (INTERQUIM, S.A., priority 2015, published 2018).

Tests used:
[1] = according to WO05060940 A2, practically insoluble
[2] = CHMP assessment report for Xarelto, slightly soluble

solubility in water [1]: about 7 mg/L
solubility in organic solvents [2]: 1000 to 10000 µg/mL
Compound: O=C(NC[C@H]1CN(c2ccc(N3CCOCC3=O)cc2)C(=O)O1)c1ccc(Cl)s1 [Rivaroxaban, 5-chloro-N-({(5S)-2-oxo-3-[4-(3-oxomorpholin-4-yl)phenyl]-1,3-oxazolidin-5-yl}methyl)thiophene-2-carboxamide]
